Holding throughout (format): biochemical
One assay concerns the target T1, cathepsin L (Homo sapiens, UniProt P07711).
T1 construct: gene CTSL
As to the kind of experiment: recombinant enzyme, fluorogenic substrate Cbz-FR-AMC, Morrison plot Ki (limited activity).

Another assay deals with T2, cathepsin S (Homo sapiens, UniProt P25774).
T2 construct: gene CTSS
As to the kind of experiment: recombinant enzyme, fluorogenic substrate Cbz-VVR-AMC, Morrison plot Ki.

In a further assay the target is T3, cathepsin K (Homo sapiens, UniProt P43235).
T3 construct: gene CTSK
T3 sequence (P43235 115-329): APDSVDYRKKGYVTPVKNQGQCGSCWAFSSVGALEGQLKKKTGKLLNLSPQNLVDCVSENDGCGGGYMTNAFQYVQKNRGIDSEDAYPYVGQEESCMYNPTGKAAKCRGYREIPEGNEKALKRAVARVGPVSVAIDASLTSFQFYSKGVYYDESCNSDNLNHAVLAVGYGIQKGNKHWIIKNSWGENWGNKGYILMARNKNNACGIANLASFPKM
As to the kind of experiment: recombinant enzyme, fluorogenic substrate Cbz-FR-AMC, Morrison plot Ki.

The next assay concerns the target T4, cathepsin B (Homo sapiens, UniProt P07858).
T4 construct: gene CTSB
As to the kind of experiment: recombinant enzyme, fluorogenic substrate Cbz-RR-AMC, Morrison plot Ki.

The next assay deals with T5, cathepsin V (Homo sapiens, UniProt O60911).
T5 construct: gene CTSV
T5 sequence (O60911 114-334): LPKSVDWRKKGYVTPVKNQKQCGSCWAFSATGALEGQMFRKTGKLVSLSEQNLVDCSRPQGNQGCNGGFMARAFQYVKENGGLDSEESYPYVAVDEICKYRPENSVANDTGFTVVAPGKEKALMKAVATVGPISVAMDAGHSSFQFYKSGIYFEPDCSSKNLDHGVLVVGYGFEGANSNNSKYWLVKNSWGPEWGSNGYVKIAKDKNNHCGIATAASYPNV
The experiment in a line: recombinant enzyme, fluorogenic substrate Cbz-FR-AMC, Morrison plot Ki.

This is an account of results in publication PMC4839156, “A bioavailable cathepsin S nitrile inhibitor abrogates tumor development” (Molecular Cancer, 2016).

T2 sequence (P25774 115-331): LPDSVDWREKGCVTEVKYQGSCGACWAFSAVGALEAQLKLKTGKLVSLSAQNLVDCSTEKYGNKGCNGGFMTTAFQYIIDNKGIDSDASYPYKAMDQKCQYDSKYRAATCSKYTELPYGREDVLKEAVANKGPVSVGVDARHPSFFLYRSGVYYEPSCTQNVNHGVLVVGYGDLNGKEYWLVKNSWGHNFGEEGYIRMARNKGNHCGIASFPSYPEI
T1 sequence (P07711 114-288): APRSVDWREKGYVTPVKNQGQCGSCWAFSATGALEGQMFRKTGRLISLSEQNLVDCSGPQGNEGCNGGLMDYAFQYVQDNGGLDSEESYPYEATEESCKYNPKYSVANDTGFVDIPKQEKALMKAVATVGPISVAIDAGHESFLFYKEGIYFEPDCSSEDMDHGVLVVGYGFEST
T1 sequence (P07711 292-333): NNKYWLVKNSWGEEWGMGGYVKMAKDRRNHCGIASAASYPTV

For the compound `CS(=O)(=O)C[C@H](N[C@@H](c1ccc(F)cc1)C(F)(F)F)C(=O)NC1(C#N)CC1` [compound 6], the inhibitory constant (Ki) (in general, a measure of affinity in units of concentration, obtained from inhibition or displacement) at cathepsin L was found to be 7.87 µM; on cathepsin S it was 2.71 nM; on cathepsin K it was 155 nM; at cathepsin B, 1940 nM; at cathepsin V, 784 nM.
